How the values were obtained:
[1] = target: T1, human carbonic anhydrase II (Homo sapiens, UniProt P00918); experiment: Human carbonic anhydrase II colorimetric (p-nitrophenyl acetate) inhibition assay; type: biochemical; conditions: mean ± SEM, three independent experiments in triplicate; read-out: CA II (IC50)
T1 construct: purchased Sino Biological Inc, Beijing, China
Description: (§1) In brief, the reaction mixture contained 60 μL of 50 mM Tris-sulfate buffer (pH 7.6, containing 0.1 mM ZnCl2),10 μL (0.5 mM) of the test compound in 1% DMSO, and 10 μL of human carbonic anhydrase II and IX (Sino Biological Inc, Beijing, China). All the ingredients were mixed well and pre-incubated at 25°C for 10 min. Substrate p-nitrophenyl acetate was prepared as a 6 mM stock solution using 5% of acetonitrile in buffer and was used fresh. […] The total assay volume was adjusted to 100 μL and further incubated at 37°C for 30 min. Furthermore, all the ingredients were mixed properly, and absorbance was measured. […] The results reported are the mean of triplicate experiments (±SEM) and expressed IC50 values, which were calculated.

[2] = target: T2, human carbonic anhydrase IX (Homo sapiens, UniProt Q16790); experiment: Human carbonic anhydrase IX colorimetric (p-nitrophenyl acetate) inhibition assay; type: biochemical; conditions: mean ± SEM, three independent experiments in triplicate; read-out: CA IX (IC50)
T2 construct: purchased Sino Biological Inc, Beijing, China
Description: as §1

[3] = system: MES-induced seizures; experiment: Maximal electroshock-induced seizure (MES) test; type: in vivo, male Swiss albino mice; conditions: for Minimum active dose (mg/kg) MES 0.5 h / Minimum active dose (mg/kg) MES 4 h: oral, lowest dose active in half or more of the mice, n = 6;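 as to % protection MES 0.5 h: percent reduction of the test group versus the control group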;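 as to % protection MES 4 h: percent reduction of the test group versus the control group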
[4] = system: PTZ-induced seizures; experiment: Subcutaneous pentylenetetrazole (sc-PTZ) test; type: in vivo, male Swiss albino mice; conditions: for Minimum active dose (mg/kg) Sc-PTZ 0.5 h / Minimum active dose (mg/kg) Sc-PTZ 4 h: oral, lowest dose active in half or more of the mice, n = 6;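 as to % protection Sc-PTZ 0.5 h: percent reduction of the test group versus the control group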;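 as to % protection Sc-PTZ 4 h: percent reduction of the test group versus the control group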
[5] = system: mice; experiment: Rotarod neurotoxicity screening; type: in vivo, male Swiss albino mice; conditions: for Neurotoxicity dose (mg/kg) 0.5 h / Neurotoxicity dose (mg/kg) 4 h: rotarod, oral doses 30, 100, 300 mg/kg
Description: The rotarod test, as described in the literature, was used to evaluate neurotoxicity (NT) in mice. In brief, six mice (one group) were trained to balance on a spinning rod (3 cm diameter and 6 rpm speed) to familiarize with the rotarod apparatus (Orchid Scientific, India). Each mouse underwent three trials to remain on the rotating rod for over 1 minute, with the experiment’s cutoff time (180 s) remaining constant. Different pre-oral (p.o.) doses of test and standard substances were administered to the trained animals.

[6] = system: induced seizures; experiment: Anticonvulsant screening (MES and sc-PTZ), outcome recovery/death

Row | SMILES | IC50 [1] | IC50 [2] | % protection MES 0.5 h ([3]; 100 mg/kg oral) | % protection MES 4 h ([3]; 100 mg/kg oral) | % protection MES 0.5 h ([3]; 300 mg/kg oral) | % protection MES 4 h ([3]; 300 mg/kg oral) | Minimum active dose (mg/kg) MES 0.5 h [3] | Minimum active dose (mg/kg) MES 4 h [3] | % protection Sc-PTZ 0.5 h ([4]; 300 mg/kg oral) | % protection Sc-PTZ 4 h ([4]; 300 mg/kg oral) | Minimum active dose (mg/kg) Sc-PTZ 0.5 h [4] | Minimum active dose (mg/kg) Sc-PTZ 4 h [4] | Neurotoxicity dose (mg/kg) 0.5 h [5] | Neurotoxicity dose (mg/kg) 4 h [5] | Recovery/death ([6]; 30 mg/kg oral) | Recovery/death ([6]; 100 mg/kg oral) | Recovery/death ([6]; 300 mg/kg oral) | other results
1 | CN(C)CCOc1cccc(C(=O)Nc2nncs2)c1 [Compound 6e, 3-(2-(dimethylamino)ethoxy)-N-(1,3,4-thiadiazol-2-yl)benzamide] | 230 ± 20 nM | 210 ± 40 nM | 32.3% | 55.38% | 46.15% | 73.83% | 30 mg/kg | 100 mg/kg | 46.55% | 74.2% | 30 mg/kg | 100 mg/kg | - (The indication - (dash) denotes a lack of action at the maximum dose supplied (300 mg/kg)) | - (The indication - (dash) denotes a lack of action at the maximum dose supplied (300 mg/kg)) | Recovery | Recovery | Recovery | % protection MES 0.5 h ([3]; 30 mg/kg oral): 38.46%; % protection Sc-PTZ 0.5 h ([4]; 30 mg/kg oral): 39.02%; % protection Sc-PTZ 0.5 h ([4]; 100 mg/kg oral): 32.39%; % protection Sc-PTZ 4 h ([4]; 100 mg/kg oral): 63.58%
2 | COc1ccc(C(=O)Nc2nncs2)cc1OCCN1CCOCC1 [Compound 7a, 4-Methoxy-3-(2-morpholinoethoxy)-N-(1,3,4-thiadiazol-2-yl)benzamide] | 970 ± 50 nM | 880 ± 40 nM | 16.92% | – | – | 40% | 100 mg/kg | 300 mg/kg | 16.64% | 15.38% | 300 mg/kg | 300 mg/kg | – | – | Recovery | Recovery | Recovery | –
3 | COc1ccc(C(=O)Nc2nncs2)cc1OCCN1CCCCC1 [Compound 7b, 4-Methoxy-3-(2-(piperidin-1-yl)ethoxy)-N-(1,3,4-thiadiazol-2-yl)benzamide] | 740 ± 30 nM | 730 ± 20 nM | 29.23% | – | – | 47.69% | 100 mg/kg | 300 mg/kg | 23.07% | 32.21% | 300 mg/kg | 300 mg/kg | – | – | Recovery | Recovery | Recovery | –
4 | COc1ccc(C(=O)Nc2nncs2)cc1OCCN1CCCC1 [Compound 7c, 4-Methoxy-3-(2-(pyrrolidin-1-yl)ethoxy)-N-(1,3,4-thiadiazol-2-yl)benzamide] | 690 ± 20 nM | 640 ± 40 nM | 24.61% | 32.30% | 35.38% | 49.23% | 100 mg/kg | 100 mg/kg | 35.38% | 36.75% | 300 mg/kg | 300 mg/kg | - (The indication - (dash) denotes a lack of action at the maximum dose supplied (300 mg/kg)) | - (The indication - (dash) denotes a lack of action at the maximum dose supplied (300 mg/kg)) | Recovery | Recovery | Recovery | –
5 | CCCC(CCC)C(=O)O [Sodium valproate, reference compound] | – | – | – | – | 72.30% | 63.07% | 300 mg/kg | 300 mg/kg | 77.72% | 63.03% | 300 mg/kg | 300 mg/kg | - (The indication - (dash) denotes a lack of action at the maximum dose supplied (300 mg/kg)) | - (The indication - (dash) denotes a lack of action at the maximum dose supplied (300 mg/kg)) | – | – | Recovery | Neurotoxicity (rotarod test), result in words ([5]; at the highest dose (300 mg/kg)): no neurotoxicity
